Measurements as given in US11064658B2, “Method for inducing plants to increase their flavonoid compound content” (Industrial Technology Research Institute, priority 2018, dated 2021).

Assays:
Type in all cases: in vivo
[1] = tested on: Ixeris chinensis; assay: Al ion stimulation alone or combined with ultraviolet irradiation, hydroponic culture; total flavonoid content of flowers and pedicels; conditions: for total flavonoid content: flowers and pedicels, compared to control group
Protocol: 1. MS liquid medium was prepared according to the formulation of Table 1 shown above. 2. Different amounts of AlCl3 solution were added to the MS liquid medium prepared above to respectively form MS liquid mediums with AlCl3 final concentrations of 0 mM (control group) and 1.25 mM for ready for use. 3. […] chinensis plants were sampled from the field. Leaves and pedicels of the above-ground part and root of the under-ground part of the […] chinensis plant were wiped and wash with water and the root were allowed in a form of bare root. After that, the whole plant was inserted into a test tube containing the MS liquid medium with AlCl3 prepared above, and the root of the plant was immersed in the liquid medium. 4. At the 73th hour of the immersion, the plants were irradiated with ultraviolet B for 1 hour. The plants were then allowed to recover for 3 hour. After the recovery, the morphological changes of the plants were observed and samples of flowers and pedicels were collected. Then, the collected samples were lyophilized. 5. The collected flowers and pedicels of the fresh plant were extracted with 30% ethanol and subjected to total flavonoid content analysis.

[2] = tested on: Chrysanthemum morifolium; assay: Al ion stimulation at different concentrations for 72 hours, hydroponic culture; flavonoid glycoside contents by HPLC; conditions: whole plants, AlCl3 100, 150, 200, 250 μM, compared to control group
Protocol: 1. MS liquid medium was prepared based on the formulation of Table 1 shown above. 2. Different amounts of AlCl3 solution were added to the MS liquid medium prepared above to respectively form MS liquid mediums with AlCl3 final concentrations of 0 μM (control group), 100 μM, 150 μM, 200 μM and 250 μM for ready for use. 3. Tissue culture seedlings of Chrysanthemum morifolium (young shoot of Chrysanthemum morifolium) were taken out from solid culture tubes. After that, the solid medium on the root of the plants was washed with water, and the whole plants were inserted into test tubes containing the MS liquid medium with different AlCl3 final concentration prepared above, and the roots of the plants were immersed in the liquid medium. Finally, the above-ground parts of the plants were covered with sealed bags to protect the cuticula on the surfaces of the plant leaves to prevent rapid evapotranspiration of water. 4. After being immersed for 72 hours, the morphological changes of the plants were observed and the samples of whole plants were collected. Then, the collected samples were lyophilized. 5. After the lyophilization, extraction was performed on the whole plant of Chrysanthemum morifolium. […]

[3] = tested on: Chrysanthemum morifolium; assay: Al ion stimulation alone or combined with ultraviolet irradiation, hydroponic culture; flavonoid glycoside contents by HPLC; conditions: whole plants, compared to control group
Protocol: 1. MS liquid medium was prepared based on the formulation of Table 1 shown above. 2. Different amounts of AlCl3 solution were added to the MS liquid medium prepared above to respectively form MS liquid mediums with AlCl3 final concentrations of 0 μM (control group) and 250 μM for ready for use. 3. Tissue culture seedlings of Chrysanthemum morifolium (young shoot of Chrysanthemum morifolium) were taken out from solid culture tubes. After that, the solid medium on the roots of the plants were washed with water, and the whole plants were inserted into test tubes containing the MS liquid medium with different AlCl3 final concentration prepared above, and the roots of the plant were immersed in the liquid medium. Finally, the above-ground parts of the plants were covered with sealed bags to protect the cuticula on the surfaces of the plant leaves to prevent rapid evapotranspiration of water. 4. […] The plants were then allowed to recover for 1 hour. After the recovery, the morphological changes of the plants were observed and samples of whole plants were collected. Then, the collected samples were lyophilized. 5. After the lyophilization, extraction was performed on the whole plant of Chrysanthemum morifolium. The extraction method used was water extraction, and the dried plant and deionized water were mixed at a ratio of 1:20 (g/mL) (i.e., 1 g dry weight of plant was added to 20 mL of deionized water) to form a mixture. Using a condensing heating system, the mixture was heated to boiling for 90 minutes to complete the extraction and obtain an extract solution. The plant residue in the extract solution was removed by filtration, and then the extract solution was further lyophilized to obtain an extract. 6. High-performance liquid chromatography was performed on the extract mentioned above to determine the contents of luteolin-7-O-β-D-glycoside and […] which belong to flavonoid compounds.

[4] = tested on: Chrysanthemum morifolium; assay: Al ion stimulation of flowering plants for 96 hours, soil culture; flavonoid contents of flowers; conditions: AlCl3 1.25 mM and 2.5 mM, compared to control group
Protocol: 1. AlCl3 solutions with concentrations of 1.25 mM and 2.5 mM were prepared, respectively. 2. The flowering plants of Chrysanthemum morifolium (adult of Chrysanthemum morifolium) cultured by soil culture together with the soil and flower pots where the plants were located, were immersed in the AlCl3 solutions prepared above. 3. After being immersed for 96 hours, the morphological changes of the plants were observed and the samples of flowers were collected and lyophilized. 4. After the lyophilization, extraction was performed on the flowers of Chrysanthemum morifolium. The extraction method used was water extraction, and the dried flowers and deionized water were mixed at a ratio of 1:20 (g/mL) (i.e., 1 g dry weight of flowers was added to 20 mL of deionized water) to form a mixture. Using a condensing heating system, the mixture was heated to boiling for 90 minutes to complete the extraction and obtain an extract solution. The plant residue in the extract solution was removed by filtration, and then the extract solution was further lyophilized to obtain an extract.

[5] = tested on: Chrysanthemum morifolium; assay: Al ion stimulation for different lengths of time, hydroponic culture; flavonoid glycoside contents by HPLC; conditions: whole plants, AlCl3 70, 250, 350 μM, 48, 72, 96 hours, compared to control group, had a dose effect
Protocol: 1. MS liquid medium was prepared based on the formulation of Table 1 shown in the following. 2. Different amounts of AlCl3 solution were added to the MS liquid medium prepared above to respectively form MS liquid mediums with AlCl3 final concentrations of 0 μM (control group), 70 μM, 250 μM and 350 μM for ready for use. 3. Tissue culture seedlings of Chrysanthemum morifolium (young shoot of Chrysanthemum morifolium) were taken out from solid culture tubes. After that, the solid medium on the root of the plants was washed with water, and the whole plants were inserted into test tubes containing the MS liquid medium with different AlCl3 final concentration prepared above, and the roots of the plants were immersed in the liquid medium. Finally, the above-ground parts of the plants were covered with sealed bags to protect the cuticula on the surfaces of the plant leaves to prevent rapid evapotranspiration of water. 4. After being immersed for 48, 72 and 96 hours, the morphological changes of the plants were observed and the samples of whole plants were collected. Then, the collected samples were lyophilized. 5. After the lyophilization, extraction was performed on the whole plant of Chrysanthemum morifolium. […]

[6] = tested on: Chrysanthemum morifolium; assay: Al ion stimulation alone or combined with ultraviolet irradiation, solid medium culture; total flavonoid content; conditions: whole plant, compared to control group
Protocol: 1. Different amounts of AlCl3 were added to the formulation of Table 2 shown above to respectively form MS solid mediums with final concentration of 0 μM (control group) and 350 μM for ready for use. 2. A terminal bud of a tissue culture seedling of Chrysanthemum morifolium (young shoot of Chrysanthemum morifolium) was cut and inserted to a solid medium without addition of the stimulation ion. After the plant had grown roots, the root part of the plant having the root with a length of less than 0.5 cm was inserted to the solid medium prepared above to perform the solid medium culture. 4. On the 41st day of the culture, the plants were irradiated with ultraviolet B for 0, 1, 2 and 4 hours, respectively. The plants were then allowed to recover for 3 hours. After the recovery, the morphological changes of the plants were observed and samples of whole plants (plants stimulated by Al ions alone, plants irradiated with 1 hour of ultraviolet alone, and plants stimulated by Al ions and 1, 2, and 4 hours of ultraviolet irradiation were obtained) were collected. After that, the collected samples were lyophilized. 5. After the lyophilization, extraction was performed on the whole plant. […] Quantitative analysis of total flavonoids was performed on the extracts mentioned above.

[7] = tested on: Chrysanthemum morifolium; assay: Cu ion stimulation alone or combined with ultraviolet irradiation, hydroponic culture; flavonoid glycoside contents by HPLC; conditions: whole plants, compared to control group
[8] = tested on: Chrysanthemum morifolium; assay: Zn ion stimulation for 40 days, solid medium culture; flavonoid glycoside contents by HPLC; conditions: whole plants, Zn ion 15, 30, 45 mM, compared to control group (3 mM)
Protocol: 1. Different amounts of ZnSO4 were added to the formulation of Table 2 shown in the following to respectively form MS solid mediums with different Zn ion final concentration of 3 mM (control group), 15 mM, 30 mM and 45 mM for ready for use. 2. A terminal bud of a tissue culture seedling of Chrysanthemum morifolium (young shoot of Chrysanthemum morifolium) was cut and inserted to the solid medium prepared above (since a rooted plant was not easy to insert into solid medium, the experiment was performed in this way) to perform the solid medium culture. Since Zn is mainly absorbed by the roots of plants, the evaluation only could start after the plant had grown roots. The Zn element could be absorbed and utilized by the plant only after the plant had grown roots. Plants were allowed to absorb zinc during growth and development, thereby causing changes in physiological and compositional components in the plants. 3. After being cultured for 40 days, the morphological changes of the plants were observed and the samples of whole plants were collected. Then, the collected samples were lyophilized. 4. After the lyophilization, extraction was performed on the whole plant of Chrysanthemum morifolium. […]

[9] = AlCl3 250 μM plus ultraviolet B 1 hour at 97th hour, recovery 1 hour
[10] = CuSO4 250 μM plus ultraviolet B 1 hour at 97th hour, recovery 1 hour

[Cl][Al]([Cl])[Cl] [Al ions, AlCl3]
appearance of plants before and after the ultraviolet irradiation, under Al ion stimulation ([1]; AlCl3 1.25 mM, ultraviolet B 1 hour): no significant difference | total flavonoid content ([1]; AlCl3 1.25 mM plus ultraviolet B 1 hour at 73th hour, recovery 3 hour): about 3.5 fold | total flavonoid content ([1]; AlCl3 1.25 mM, Al ions alone): increased | content of apigenin-7-O-β-D-glycoside [2]: significantly increased about twofold to threefold | content of luteolin-7-O-β-D-glycoside [2]: significantly increased about twofold to threefold | content of apigenin-7-O-β-D-glycoside [3, 9]: about 40 fold | content of luteolin-7-O-β-D-glycoside [3, 9]: about 40 fold | content of apigenin-7-O-β-D-glycoside ([3]; AlCl3 250 μM, Al ions alone): increased | content of luteolin-7-O-β-D-glycoside ([3]; AlCl3 250 μM, Al ions alone): increased | content of apigenin [4]: significantly increased | content of apigenin-7-O-β-D-glycoside [4]: significantly increased | content of luteolin-7-O-β-D-glycoside [4]: significantly increased | content of apigenin-7-O-β-D-glycoside [5]: significantly increased | content of luteolin-7-O-β-D-glycoside [5]: significantly increased | total flavonoid content ([6]; AlCl3 350 μM plus ultraviolet B 1, 2, 4 hours on 41st day, recovery 3 hours): increased | total flavonoid content ([6]; AlCl3 350 μM, Al ions alone): increased

O=S(=O)([O-])[O-].[Cu+2] [Cu ions, CuSO4]
content of apigenin-7-O-β-D-glycoside [7, 10]: about 37 fold | content of luteolin-7-O-β-D-glycoside [7, 10]: about 37 fold | content of apigenin-7-O-β-D-glycoside ([7]; CuSO4 250 μM, Cu ions alone): increased | content of luteolin-7-O-β-D-glycoside ([7]; CuSO4 250 μM, Cu ions alone): increased

O=S(=O)([O-])[O-].[Zn+2] [Zn ions, ZnSO4]
content of apigenin-7-O-β-D-glycoside [8]: significantly increased about sevenfold to eightfold | content of luteolin-7-O-β-D-glycoside [8]: significantly increased about sevenfold to eightfold
